Data: ChEMBL document CHEMBL1148909, “Antineoplastic agents. 535. Isolation and structure of plakorstatins 1 and 2 from the Indo-Pacific sponge Plakortis nigra” (2004)
≈ marks a conversion by molar mass, not a printed value.

System: P388
Experiment: Growth inhibition of mouse P388 cells
Assay type: functional
Conditions: read-out: ED50 (the source's name)

Structure (SMILES)	EC50 [µg/mL]
CC/C(=C\[C@@]1(CC)C[C@H](CC)[C@H](CC(=O)OC)OO1)[C@H]1O[C@H]1CC (single isomer, unassigned) [PLAKORSTATIN 1]	1.1 (≈ 3.23 µM)
CC/C(=C\[C@@]1(CC)C[C@H](CC)[C@H](CC(=O)OC)OO1)[C@@H]1O[C@@H]1CC (single isomer, unassigned) [PLAKORSTATIN 2]	0.91 (≈ 2.67 µM)
